Measured values published in patent US5486516A, “Furopyrimidine derivatives” (DowElanco, priority 1993, dated 1996).

What follows are molecules tested on Pseudoperonospora cubensis (downy mildew) (assay: Plant pathology screen (Test 1), downy mildew on squash). Conditions: foliar, read-out: DOWN MDEW control rating.
Molecule `Cc1coc2ncnc(NCCc3ccc(Cl)cc3)c12` [Example 11, 5-methyl-N-[2-(4-chlorophenyl)ethyl]furo[2,3-d]pyrimidin-4-amine] has a pest or weed control at 400 µg/mL of 90 to 100%.
`Cc1oc2ncnc(OCCc3ccc4c(c3)OCCO4)c2c1C` [Example 75, 5,6-dimethyl-4-[2-[benzo[b]-1,4-dioxan-6-yl]ethoxy]furo[2,3-d]pyrimidine] gave a pest or weed control at 400 µg/mL of 20 to 89%.
Molecule `CCOc1ccc(CCNc2ncnc3oc(C)c(C)c23)cc1` [Example 3, 5,6-dimethyl-N-[2-(4-ethoxyphenyl)ethyl]furo[2,3-d]pyrimidin-4-amine] has a pest or weed control at 400 µg/mL of 20 to 89%.
`COc1ccc(CCOc2ncnc3oc(C)cc23)cc1` [Example 40, 6-methyl-4-[2-(4-methoxyphenyl)ethoxy]furo[2,3-d]pyrimidine] gave a pest or weed control at 400 µg/mL of 90 to 100%.

These molecules were tested on melon aphids (Aphis gossvpii Glover) (assay: Mite/insect screen, melon aphids). Conditions: Aphis; rate 200 ppm, sprayed leaves; read-out: MA results (percent mortality).
Format: in vivo
How it was run: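 Percent mortality of melon aphids was assessed after standard exposure periods. Infested squash cotyledons had been sprayed on both leaf surfaces until runoff at 10 psi with water-diluted test solutions. Compounds were formulated in acetone/alcohol (50:50) containing emulsifiers.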
`Cc1coc2ncnc(NCCc3ccc(Cl)cc3)c12` [Example 11, 5-methyl-N-[2-(4-chlorophenyl)ethyl]furo[2,3-d]pyrimidin-4-amine] was tested, and the mortality at 200 ppm was 90%.
`CCOc1ccc(CCNc2ncnc3oc(C)c(C)c23)cc1` [Example 3, 5,6-dimethyl-N-[2-(4-ethoxyphenyl)ethyl]furo[2,3-d]pyrimidin-4-amine] was tested, and the mortality at 200 ppm was 0%.
In the case of `COc1ccc(CCOc2ncnc3oc(C)cc23)cc1` [Example 40, 6-methyl-4-[2-(4-methoxyphenyl)ethoxy]furo[2,3-d]pyrimidine], the mortality at 200 ppm is reported as 0%.

Same assay, conditions: Aphis; rate 400 ppm, sprayed leaves; read-out: MA results (percent mortality)
In the case of `Cc1coc2ncnc(NCCc3ccc(Cl)cc3)c12` [Example 11, 5-methyl-N-[2-(4-chlorophenyl)ethyl]furo[2,3-d]pyrimidin-4-amine], the mortality at 400 ppm is reported as 0%.
Molecule `Cc1oc2ncnc(OCCc3ccc4c(c3)OCCO4)c2c1C` [Example 75, 5,6-dimethyl-4-[2-[benzo[b]-1,4-dioxan-6-yl]ethoxy]furo[2,3-d]pyrimidine] has a mortality at 400 ppm of 0%.
Work on `CCOc1ccc(CCNc2ncnc3oc(C)c(C)c23)cc1` [Example 3, 5,6-dimethyl-N-[2-(4-ethoxyphenyl)ethyl]furo[2,3-d]pyrimidin-4-amine] yielded a mortality at 400 ppm of 0%.
`COc1ccc(CCOc2ncnc3oc(C)cc23)cc1` [Example 40, 6-methyl-4-[2-(4-methoxyphenyl)ethoxy]furo[2,3-d]pyrimidine] was tested, and the mortality at 400 ppm was 80%.

What follows are molecules tested on Twospotted spider mites (Tetranychus urticae Koch) (assay: Mite/insect screen, twospotted spider mites). Conditions: Tetranychus urticae, rate 200 ppm, sprayed leaves; read-out: SM results (percent mortality).
Format: in vivo
How it was run: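 Percent mortality, along with phytotoxicity, was read after standard exposure periods. Beforehand, mites established on both surfaces of squash cotyledons received a runoff spray (10 psi) of water-diluted compound formulated in acetone/alcohol with sulfonate/nonionic emulsifiers.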
Work on `Cc1coc2ncnc(NCCc3ccc(Cl)cc3)c12` [Example 11, 5-methyl-N-[2-(4-chlorophenyl)ethyl]furo[2,3-d]pyrimidin-4-amine] yielded a mortality at 200 ppm of 30%.
`CCOc1ccc(CCNc2ncnc3oc(C)c(C)c23)cc1` [Example 3, 5,6-dimethyl-N-[2-(4-ethoxyphenyl)ethyl]furo[2,3-d]pyrimidin-4-amine] was tested, and the mortality at 200 ppm was 0%.
With `COc1ccc(CCOc2ncnc3oc(C)cc23)cc1` [Example 40, 6-methyl-4-[2-(4-methoxyphenyl)ethoxy]furo[2,3-d]pyrimidine] the mortality at 200 ppm was 0%.

Same assay, conditions: Tetranychus urticae, rate 400 ppm, sprayed leaves; read-out: SM results (percent mortality)
`Cc1coc2ncnc(NCCc3ccc(Cl)cc3)c12` [Example 11, 5-methyl-N-[2-(4-chlorophenyl)ethyl]furo[2,3-d]pyrimidin-4-amine] showed a mortality at 400 ppm of 0%.
With `Cc1oc2ncnc(OCCc3ccc4c(c3)OCCO4)c2c1C` [Example 75, 5,6-dimethyl-4-[2-[benzo[b]-1,4-dioxan-6-yl]ethoxy]furo[2,3-d]pyrimidine] the mortality at 400 ppm was 0%.
With `CCOc1ccc(CCNc2ncnc3oc(C)c(C)c23)cc1` [Example 3, 5,6-dimethyl-N-[2-(4-ethoxyphenyl)ethyl]furo[2,3-d]pyrimidin-4-amine] the mortality at 400 ppm was 0%.
`COc1ccc(CCOc2ncnc3oc(C)cc23)cc1` [Example 40, 6-methyl-4-[2-(4-methoxyphenyl)ethoxy]furo[2,3-d]pyrimidine] was tested, and the mortality at 400 ppm was 20%.

The molecules below were run on Southern corn rootworm (Diabrotica undecimpuctata howardi Barber) (assay: Mite/insect screen, corn rootworm). Conditions: Diabrotica; CRW rate 12.00 ppm, soil; read-out: CRW results (percent mortality).
Format: in vivo
How it was run: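 Five 2-3 instar larvae per cup were placed on sandy soil (15 g, with presoaked corn seed) treated 6–12 h earlier with 1 mL test solution, an emulsified acetone/alcohol formulation diluted in water. Cups kept at 23° C; mortality and phytotoxicity assessed as percent after standard exposures.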
Work on `Cc1coc2ncnc(NCCc3ccc(Cl)cc3)c12` [Example 11, 5-methyl-N-[2-(4-chlorophenyl)ethyl]furo[2,3-d]pyrimidin-4-amine] yielded a mortality at 12 ppm of 0%.
`CCOc1ccc(CCNc2ncnc3oc(C)c(C)c23)cc1` [Example 3, 5,6-dimethyl-N-[2-(4-ethoxyphenyl)ethyl]furo[2,3-d]pyrimidin-4-amine] showed a mortality at 12 ppm of 0%.
Work on `COc1ccc(CCOc2ncnc3oc(C)cc23)cc1` [Example 40, 6-methyl-4-[2-(4-methoxyphenyl)ethoxy]furo[2,3-d]pyrimidine] yielded a mortality at 12 ppm of 0%.

Same assay, conditions: Diabrotica; CRW rate 24.00 ppm, soil; read-out: CRW results (percent mortality)
`Cc1coc2ncnc(NCCc3ccc(Cl)cc3)c12` [Example 11, 5-methyl-N-[2-(4-chlorophenyl)ethyl]furo[2,3-d]pyrimidin-4-amine] gave a mortality at 24 ppm of 0%.
For `Cc1oc2ncnc(OCCc3ccc4c(c3)OCCO4)c2c1C` [Example 75, 5,6-dimethyl-4-[2-[benzo[b]-1,4-dioxan-6-yl]ethoxy]furo[2,3-d]pyrimidine], the mortality at 24 ppm was 0%.
In the case of `CCOc1ccc(CCNc2ncnc3oc(C)c(C)c23)cc1` [Example 3, 5,6-dimethyl-N-[2-(4-ethoxyphenyl)ethyl]furo[2,3-d]pyrimidin-4-amine], the mortality at 24 ppm is reported as 0%.
Work on `COc1ccc(CCOc2ncnc3oc(C)cc23)cc1` [Example 40, 6-methyl-4-[2-(4-methoxyphenyl)ethoxy]furo[2,3-d]pyrimidine] yielded a mortality at 24 ppm of 0%.

These molecules were tested on southern armyworm (Spodopetra eridania Cramer) (assay: Mite/insect screen, Southern armyworm). Conditions: Spodoptera eridania; rate 200 ppm, sprayed leaves; read-out: SAW results (percent mortality).
Format: in vivo
How it was run: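 Southern armyworm larvae placed in Petri dishes with two excised squash leaves that had been sprayed to runoff (10 psi) with emulsified compound and air-dried for 1 h. Mortality in percent recorded after a standard exposure period; formulation acetone/alcohol plus Toximul R and S, water-diluted.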
Molecule `Cc1coc2ncnc(NCCc3ccc(Cl)cc3)c12` [Example 11, 5-methyl-N-[2-(4-chlorophenyl)ethyl]furo[2,3-d]pyrimidin-4-amine] has a mortality at 200 ppm of 0%.
With `CCOc1ccc(CCNc2ncnc3oc(C)c(C)c23)cc1` [Example 3, 5,6-dimethyl-N-[2-(4-ethoxyphenyl)ethyl]furo[2,3-d]pyrimidin-4-amine] the mortality at 200 ppm was 30%.
`COc1ccc(CCOc2ncnc3oc(C)cc23)cc1` [Example 40, 6-methyl-4-[2-(4-methoxyphenyl)ethoxy]furo[2,3-d]pyrimidine] showed a mortality at 200 ppm of 0%.

Same assay, conditions: Spodoptera eridania; rate 400 ppm, sprayed leaves; read-out: SAW results (percent mortality)
In the case of `Cc1coc2ncnc(NCCc3ccc(Cl)cc3)c12` [Example 11, 5-methyl-N-[2-(4-chlorophenyl)ethyl]furo[2,3-d]pyrimidin-4-amine], the mortality at 400 ppm is reported as 60%.
In the case of `Cc1oc2ncnc(OCCc3ccc4c(c3)OCCO4)c2c1C` [Example 75, 5,6-dimethyl-4-[2-[benzo[b]-1,4-dioxan-6-yl]ethoxy]furo[2,3-d]pyrimidine], the mortality at 400 ppm is reported as 40%.
Molecule `CCOc1ccc(CCNc2ncnc3oc(C)c(C)c23)cc1` [Example 3, 5,6-dimethyl-N-[2-(4-ethoxyphenyl)ethyl]furo[2,3-d]pyrimidin-4-amine] has a mortality at 400 ppm of 0%.
Molecule `COc1ccc(CCOc2ncnc3oc(C)cc23)cc1` [Example 40, 6-methyl-4-[2-(4-methoxyphenyl)ethoxy]furo[2,3-d]pyrimidine] has a mortality at 400 ppm of 0%.

These molecules were tested on Erysiphe graminis tritici (powdery mildew) (assay: Plant pathology screen (Test 1), powdery mildew on wheat). Conditions: Blumeria graminis, in Triticum aestivum, foliar, read-out: POWD MDEW control rating.
In the case of `Cc1coc2ncnc(NCCc3ccc(Cl)cc3)c12` [Example 11, 5-methyl-N-[2-(4-chlorophenyl)ethyl]furo[2,3-d]pyrimidin-4-amine], the pest or weed control at 400 µg/mL is reported as 20 to 89%.
`Cc1oc2ncnc(OCCc3ccc4c(c3)OCCO4)c2c1C` [Example 75, 5,6-dimethyl-4-[2-[benzo[b]-1,4-dioxan-6-yl]ethoxy]furo[2,3-d]pyrimidine] was tested, and the pest or weed control at 400 µg/mL was 0 to 19%.
`CCOc1ccc(CCNc2ncnc3oc(C)c(C)c23)cc1` [Example 3, 5,6-dimethyl-N-[2-(4-ethoxyphenyl)ethyl]furo[2,3-d]pyrimidin-4-amine] showed a pest or weed control at 400 µg/mL of 0 to 19%.
Work on `COc1ccc(CCOc2ncnc3oc(C)cc23)cc1` [Example 40, 6-methyl-4-[2-(4-methoxyphenyl)ethoxy]furo[2,3-d]pyrimidine] yielded a pest or weed control at 400 µg/mL of 20 to 89%.

Each molecule was assayed on Botrytis cinerea (gray mold) (assay: Plant pathology screen (Test 1), gray mold on grape berries). Conditions: read-out: GRAY MOLD control rating.
In the case of `Cc1coc2ncnc(NCCc3ccc(Cl)cc3)c12` [Example 11, 5-methyl-N-[2-(4-chlorophenyl)ethyl]furo[2,3-d]pyrimidin-4-amine], the pest or weed control at 400 µg/mL is reported as 0 to 19%.
`Cc1oc2ncnc(OCCc3ccc4c(c3)OCCO4)c2c1C` [Example 75, 5,6-dimethyl-4-[2-[benzo[b]-1,4-dioxan-6-yl]ethoxy]furo[2,3-d]pyrimidine] showed a pest or weed control at 400 µg/mL of 0 to 19%.
In the case of `CCOc1ccc(CCNc2ncnc3oc(C)c(C)c23)cc1` [Example 3, 5,6-dimethyl-N-[2-(4-ethoxyphenyl)ethyl]furo[2,3-d]pyrimidin-4-amine], the pest or weed control at 400 µg/mL is reported as 0 to 19%.
Work on `COc1ccc(CCOc2ncnc3oc(C)cc23)cc1` [Example 40, 6-methyl-4-[2-(4-methoxyphenyl)ethoxy]furo[2,3-d]pyrimidine] yielded a pest or weed control at 400 µg/mL of 0 to 19%.

These molecules were tested on Pyricularia oryzae (rice blast) (assay: whole plant or invertebrate). Conditions: foliar, read-out: RICE BLAST control rating.
Format: in vivo
With `Cc1coc2ncnc(NCCc3ccc(Cl)cc3)c12` [Example 11, 5-methyl-N-[2-(4-chlorophenyl)ethyl]furo[2,3-d]pyrimidin-4-amine] the pest or weed control at 400 µg/mL was 90 to 100%.
`Cc1oc2ncnc(OCCc3ccc4c(c3)OCCO4)c2c1C` [Example 75, 5,6-dimethyl-4-[2-[benzo[b]-1,4-dioxan-6-yl]ethoxy]furo[2,3-d]pyrimidine] showed a pest or weed control at 400 µg/mL of 0 to 19%.
`CCOc1ccc(CCNc2ncnc3oc(C)c(C)c23)cc1` [Example 3, 5,6-dimethyl-N-[2-(4-ethoxyphenyl)ethyl]furo[2,3-d]pyrimidin-4-amine] was tested, and the pest or weed control at 400 µg/mL was 20 to 89%.
In the case of `COc1ccc(CCOc2ncnc3oc(C)cc23)cc1` [Example 40, 6-methyl-4-[2-(4-methoxyphenyl)ethoxy]furo[2,3-d]pyrimidine], the pest or weed control at 400 µg/mL is reported as 0 to 19%.

The molecules below were run on Puccinia recondita tritici (leaf rust) (assay: Plant pathology screen (Test 1), leaf rust on wheat). Conditions: in Triticum aestivum, foliar, read-out: LEAF RUST control rating.
Work on `Cc1coc2ncnc(NCCc3ccc(Cl)cc3)c12` [Example 11, 5-methyl-N-[2-(4-chlorophenyl)ethyl]furo[2,3-d]pyrimidin-4-amine] yielded a pest or weed control at 400 µg/mL of 90 to 100%.
With `Cc1oc2ncnc(OCCc3ccc4c(c3)OCCO4)c2c1C` [Example 75, 5,6-dimethyl-4-[2-[benzo[b]-1,4-dioxan-6-yl]ethoxy]furo[2,3-d]pyrimidine] the pest or weed control at 400 µg/mL was 0 to 19%.
`CCOc1ccc(CCNc2ncnc3oc(C)c(C)c23)cc1` [Example 3, 5,6-dimethyl-N-[2-(4-ethoxyphenyl)ethyl]furo[2,3-d]pyrimidin-4-amine] was tested, and the pest or weed control at 400 µg/mL was 20 to 89%.
`COc1ccc(CCOc2ncnc3oc(C)cc23)cc1` [Example 40, 6-methyl-4-[2-(4-methoxyphenyl)ethoxy]furo[2,3-d]pyrimidine] gave a pest or weed control at 400 µg/mL of 90 to 100%.
